Measurements: publication PMC11603075 (Communications Biology, 2024)

Target: T1, KDM4E (Homo sapiens, UniProt B2RXH2)
T1 construct: KDM4E1–337; made in house; host or cells: E. coli
T1 sequence (B2RXH2 1-337): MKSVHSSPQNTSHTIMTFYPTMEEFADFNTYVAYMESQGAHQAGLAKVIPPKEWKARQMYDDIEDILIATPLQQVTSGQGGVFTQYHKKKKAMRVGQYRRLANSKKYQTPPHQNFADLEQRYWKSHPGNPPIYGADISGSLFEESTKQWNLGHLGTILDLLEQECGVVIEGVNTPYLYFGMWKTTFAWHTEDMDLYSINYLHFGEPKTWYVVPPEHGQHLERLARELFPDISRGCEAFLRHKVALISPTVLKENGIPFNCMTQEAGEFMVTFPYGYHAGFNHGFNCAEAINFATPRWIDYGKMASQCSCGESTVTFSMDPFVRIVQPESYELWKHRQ
Experiment: MALDI–TOF MS time course / specific activity, KDM4E
Type: biochemical
Experimental: MS-based screening assays with peptides and calf thymus histones were as reported; see Supplementary Table 6 for conditions. Time course assays were based on reported procedures. In brief, equal volumes of the enzyme and substrate solutions were combined to initiate the reaction; 10 µL of 2% (v/v) formic acid (HCOOH) in ddH2O or 100% methanol was added to 10 µL of the reaction mixture to quench reactions at different time points. Unless otherwise stated, time course assays were carried out in triplicate. In some cases, LC–MS was used instead of MALDI-TOF MS to avoid a MALDI matrix induced artefact with the hydroxylated product (Supplementary Fig. 16).
Data collected from time course assay(s) were used to plot the % conversion vs time (min) using GraphPad Prism5 version 5.04; the resultant slopes were used to fit a line with linear regression to the first-order region of the reaction. The resultant gradient was then converted from % product formation min^−1 to amount of peptide converted (demethylation and / or hydroxylation) in µM.
Supplementary Figure 4 Activity of KDM5C (black circles) with H2a(1–20)R3me2a is greater than that of KDM4E (white circles). (a) A MALDI–TOF MS time course graph of product formation (%) of KDM4E ( −14 Da/+16 Da) and KDM5C (−14 Da) reaction with H2a(1–20)R3me2a versus time (minutes). ~60% substrate depletion was reached after 105 minutes with KDM4E; ~95% of H2a(1–20)R3me2a was demethylated after 1 05 minut e s wit h K DM5 C. (b ) Comparison of specific activities of KDM4E with H2a(1–20)R3me2a (0.15 […]
bars; +/- SD; n = 3 (independent assays). See Supplementary Table 6 for assay condit ions.
(also on this page, place not known: 105 minutes KDM5C. (b) H2a(1 –20)R3me2a with conditions. specific activity (pmol·min-1·μM-1))
(1 picture or pasted object on this page, not shown here)
[ E nz ym e] [Peptide] [2OG] [Ascorbate] [(NH4)2F e(S O4)2] [TCEP] Buffer pH7.5 Enzyme Cognate substrate (mM) (mM) (mM) (mM) (mM) (mM) [HE PE S]
Supplementary Table 6 Summary of MS assay conditions for substrate screening. These conditions enabled efficient turnover of established substrates. Reactions were carried out at 37 °C unless otherwise st ated. […]

Which “product formation (−14 Da/+16 Da)” value (0 min, replicate 1) does the source give for “Ac - SGR [ me 2a ] GKQ GGKAR AKAKT R SSR [H2a(1–20)R3me2a, H2a(1–20)R3me2a without a biotin tag]” here?
Its value is 0%.

What about the “product formation (−14 Da/+16 Da)” value (0 min, replicate 2) of the same substance?
Its value is 0%.

And the “product formation (−14 Da/+16 Da)” value (0 min, replicate 3)?
Its value is 0%.

What about the “product formation (−14 Da/+16 Da)” value (5 min, replicate 1) of the same substance?
The value was 3.341%.

And the “product formation (−14 Da/+16 Da)” value (5 min, replicate 2)?
The value was 5.787%.

And the “product formation (−14 Da/+16 Da)” value (5 min, replicate 3)?
Its value is -0.8025%.

What about the “product formation (−14 Da/+16 Da)” value (15 min, replicate 1) of the same substance?
The value was -0.9416%.

And the “product formation (−14 Da/+16 Da)” value (15 min, replicate 2)?
Its value is 5.091%.

And the “product formation (−14 Da/+16 Da)” value (15 min, replicate 3)?
Its value is -0.7355%.

What about the “product formation (−14 Da/+16 Da)” value (30 min, replicate 1) of the same substance?
Its value is 22.6189%.

What about the “product formation (−14 Da/+16 Da)” value (30 min, replicate 2) of the same substance?
The value was 32.3989%.

What about the “product formation (−14 Da/+16 Da)” value (30 min, replicate 3) of the same substance?
Its value is 20.757%.

And the “product formation (−14 Da/+16 Da)” value (45 min, replicate 1)?
Its value is 29.5376%.

And the “product formation (−14 Da/+16 Da)” value (45 min, replicate 2)?
The value was 33.3686%.

What about the “product formation (−14 Da/+16 Da)” value (45 min, replicate 3) of the same substance?
Its value is 28.8806%.

What about the “product formation (−14 Da/+16 Da)” value (60 min, replicate 1) of the same substance?
Its value is 41.1416%.

And the “product formation (−14 Da/+16 Da)” value (60 min, replicate 2)?
The value was 35.7562%.

What about the “product formation (−14 Da/+16 Da)” value (60 min, replicate 3) of the same substance?
Its value is 37.6375%.

And the “product formation (−14 Da/+16 Da)” value (75 min, replicate 1)?
Its value is 48.3844%.

And the “product formation (−14 Da/+16 Da)” value (75 min, replicate 2)?
The value was 47.469%.

What about the “product formation (−14 Da/+16 Da)” value (75 min, replicate 3) of the same substance?
Its value is 46.9153%.

And the “product formation (−14 Da/+16 Da)” value (90 min, replicate 1)?
Its value is 60.0026%.

And the “product formation (−14 Da/+16 Da)” value (90 min, replicate 2)?
The value was 49.7939%.

What about the “product formation (−14 Da/+16 Da)” value (90 min, replicate 3) of the same substance?
The value was 54.7629%.

And the “product formation (−14 Da/+16 Da)” value (105 min, replicate 1)?
The value was 62.5982%.

And the “product formation (−14 Da/+16 Da)” value (105 min, replicate 2)?
Its value is 62.265%.

What about the “product formation (−14 Da/+16 Da)” value (105 min, replicate 3) of the same substance?
Its value is 60.6438%.

And the substrate depletion (KDM4E, 105 minutes)?
Its substrate depletion is ~ 60%.

What about the specific activity (KDM4E, mean of n = 3, SD 0.010) of the same substance?
Its specific activity is 0.15 pmol min^−1 µM^−1.

What about the specific activity (KDM4E, repeat 1) of the same substance?
The specific activity was 0.1634 pmol·min-1·μM-1.

What about the specific activity (KDM4E, repeat 2) of the same substance?
The specific activity was 0.141 pmol·min-1·μM-1.

And the specific activity (KDM4E, repeat 3)?
The specific activity was 0.1586 pmol·min-1·μM-1.
